# According to EP4178959B1, “NITROGEN HETEROCYCLIC CYTOKININ DERIVATIVES, COMPOSITIONS CONTAINING THESE DERIVATIVES AND USE THEREOF” (Univerzita Palackého v Olomouci, priority 2020, dated 2022):
# Experiments:
# [1] = Calcein AM cytotoxicity assay, NIH3T3 cells; conditions: mouse; for CC50 at 72 h: nih3t3 cells
# Experimental: (§1) All compound concentrations were examined in duplicates. […] Zero cytotoxicity is a basic prerequisite for the use of these substances in cosmetical applications. To assess the antitumor activity, the toxicity of new derivatives on panels containing cell lines of different histogenic and species origin was tested (Table 5). […] The compounds listed in Table 5 can be divided into 2 groups.
# (§2) The first group contains "classical cytokinins" represented by 6-substituted purines (their effects are already known). The second group includes novel 2-fluoro-N6-substituted-9-(2-oxacycloalkyl)-9H-purine-6-amine derivatives. […] Low cytotoxicity (high IC50 value) of the compounds is the basic prerequisite for cosmetic and medical applications. […] Table 5: Cytotoxicity of novel compounds for different normal cell lines tested / IC50 (µmol/L)
# [2] = Calcein AM cytotoxicity assay, BJ cells; conditions: human; for CC50 at 72 h: bj fibroblasts
# Experimental: as §1, §2
# [3] = Calcein AM cytotoxicity assay, B10A.4 cells; conditions: mouse; for CC50 at 72 h: b10a.4 macrophages
# Experimental: as §1, §2
# excised wheat leaf tips = experiment: Senescence inhibition on winter wheat leaf segments (chlorophyll retention); set-up: species or system Triticum aestivum cv. Hereward; conditions: for Concentration with highest activity: retention of chlorophyll; for Activity (%) [10^-4mol.l^-1 KTHP = 100%] / Emax: retention of chlorophyll in excised wheat leaf tips, 96 h in the dark, at concentration with highest activity; for Emax: Triticum aestivum, foliar, read-out: Activity (%) [10^-4mol.l^-1 KTHP = 100%]
# Experimental: Seeds of winter wheat, Triticum aestivum cv. Hereward, were washed under running water for 24 hours and then sown on vermiculite soaked with the Knop's solution. They were placed in the grow chamber at 25 °C with a 16/8 h light period at 50 μmol.m^-2.s^-1. After 7 days, the first leaf was fully developed and the second leaf had started to grow. A tip section of the first leaf, approximately 35 mm long, was removed from 5 seedlings and trimmed slightly to a combined weight of 100 mg. The basal ends of the five leaf tips were placed in the wells of a microtiter polystyrene plate containing 150 μl of the solution of the tested compound each. The entire plate was inserted into a plastic box lined with paper tissues soaked with distilled water to prevent leaf sections from drying out. […] The absorbance of the extract was recorded at 665 nm. In addition, chlorophyll extracts from fresh leaves and leaf tips incubated in deionised water were measured. From the obtained data, the concetration with the highest activity was selected for each compound tested. Relative activity of the compound at this concentration was calculated (Table 7). […] The values shown are means of five replicates and the whole experiment was repeated twice. The compounds to be tested were dissolved in dimethylsulfoxide (DMSO) and the solution brought up to 10^-3 M with distilled water. […] The compounds listed in Table 7 can be divided into 2 groups. The first group contains "classical 6,9-disubstituted purines (KTHP as a control)" known in prior art. […] Table 9: […]
# [4] = Cytotoxicity IC50, B10A.4, first column headed B10A.4
# [5] = Cytotoxicity IC50, B10A.4, second column headed B10A.4
Compound,IC50 at 72 h [1],IC50 at 72 h [2],"IC50 at 72 h [3, 4]","IC50 at 72 h [3, 5]",Concentration with highest activity (excised wheat leaf tips),Activity (%) [10^-4mol.l^-1 KTHP = 100%] (excised wheat leaf tips),CC50 at 72 h [1],CC50 at 72 h [2],"CC50 at 72 h [3, 4]","CC50 at 72 h [3, 5]",Emax (excised wheat leaf tips)
"Nc1ncnc2nc[nH]c12 [Adenine, reference compound]",> 167 µM,> 167 µM,> 167 µM,> 167 µM,,,,,,,
CC(CO)CCNc1nc(F)nc2c1ncn2C1CCCO1 (stereo not drawn) [Compound 11],,,,,10^-4 mol.l^-1,125 (± 12) %,139 µM,> 167 µM,146 µM,,
Oc1ccccc1CNc1nc(F)nc2c1ncn2C1CCCO1 (stereo not drawn) [Compound 14],,,,,10^-4 mol.l^-1,53.6 (± 7) %,> 167 µM,> 167 µM,> 167 µM,> 167 µM,
"Oc1ccc(CNc2nc(F)nc3c2ncn3C2CCCO2)cc1 (stereo not drawn) [Compound 16, 2-Fluoro-6-[(4-hydroxybenzyl)amino]-9-(tetrahydrofuran-2-yl)-9H-purine]",> 167 µM,> 167 µM,> 167 µM,,,,,,,,110%
COc1cccc(CNc2nc(F)nc3c2ncn3C2CCCO2)c1O (stereo not drawn) [Compound 20],,,,,10^-4 mol.l^-1,50 (± 5) %,> 141 µM,137 µM,124 µM,126 µM,
COc1ccc(CNc2nc(F)nc3c2ncn3C2CCCO2)c(O)c1 (stereo not drawn) [Compound 21],,,,,10^-4 mol.l^-1,35 (± 9.5) %,158 µM,132 µM,147 µM,,
Oc1ccc(CNc2nc(F)nc3c2ncn3C2CCCO2)cc1O (stereo not drawn) [Compound 33],,,,,10^-4 mol.l^-1,71.3 (± 17) %,> 167 µM,> 167 µM,> 167 µM,,
Oc1cc(O)cc(CNc2nc(F)nc3c2ncn3C2CCCO2)c1 (stereo not drawn) [Compound 34],,,,,10^-4 mol.l^-1,145 (± 12) %,> 167 µM,> 167 µM,> 167 µM,,
COc1ccc(CNc2nc(F)nc3c2ncn3C2CCCO2)c(OC)c1 (stereo not drawn) [Compound 36],,,,,10^-4 mol.l^-1,125.6 (± 15) %,> 167 µM,> 167 µM,> 167 µM,,
COc1ccc(OC)c(CNc2nc(F)nc3c2ncn3C2CCCO2)c1 (stereo not drawn) [Compound 37],,,,,10^-4 mol.l^-1,121.8 (± 17) %,> 167 µM,> 167 µM,> 167 µM,,
COc1cccc(OC)c1CNc1nc(F)nc2c1ncn2C1CCCO1 (stereo not drawn) [Compound 38],,,,,10^-4 mol.l^-1,128 (± 16) %,> 167 µM,> 167 µM,> 167 µM,,
COc1ccc(CNc2nc(F)nc3c2ncn3C2CCCO2)cc1OC (stereo not drawn) [Compound 39],,,,,10^-4 mol.l^-1,126 (± 21) %,> 167 µM,> 167 µM,> 167 µM,,
COc1cc(CNc2nc(F)nc3c2ncn3C2CCCO2)cc(OC)c1 (stereo not drawn) [Compound 40],,,,,10^-4 mol.l^-1,163 (± 8) %,> 167 µM,> 167 µM,> 167 µM,,
COc1cc(CNc2nc(F)nc3c2ncn3C2CCCO2)cc(OC)c1O (stereo not drawn) [Compound 41],,,,,10^-4 mol.l^-1,42 (± 13) %,> 167 µM,> 167 µM,> 167 µM,,
COc1cc(O)cc(OC)c1CNc1nc(F)nc2c1ncn2C1CCCO1 (stereo not drawn) [Compound 42],,,,,10^-4 mol.l^-1,22 (± 4) %,> 167 µM,> 167 µM,> 167 µM,,
"COc1cc(CNc2nc(F)nc3c2ncn3C2CCCO2)ccc1O (stereo not drawn) [Compound 43, 2-Fluoro-6-[(4-hydroxy-3-methoxybenzyl)amino]-9-(tetrahydrofuran-2-yl)-9H-purine]",> 167 µM,> 167 µM,> 167 µM,,,,,,,,55%
COc1cc(O)cc(CNc2nc(F)nc3c2ncn3C2CCCO2)c1 (stereo not drawn) [Compound 44],,,,,10^-4 mol.l^-1,47 (± 11) %,> 167 µM,> 167 µM,> 167 µM,,
Cc1cccc(CNc2nc(F)nc3c2ncn3C2CCCO2)c1O (stereo not drawn) [Compound 49],,,,,10^-4 mol.l^-1,16.4 (± 3) %,> 167 µM,161 µM,156 µM,,
Cc1ccc(O)c(CNc2nc(F)nc3c2ncn3C2CCCO2)c1 (stereo not drawn) [Compound 50],,,,,10^-4 mol.l^-1,82 (± 12) %,> 167 µM,> 167 µM,> 167 µM,,
Cc1cc(CNc2nc(F)nc3c2ncn3C2CCCO2)ccc1O (stereo not drawn) [Compound 51],,,,,10^-4 mol.l^-1,19 (± 2) %,> 167 µM,> 167 µM,> 167 µM,,
Cc1cc(O)cc(CNc2nc(F)nc3c2ncn3C2CCCO2)c1 (stereo not drawn) [Compound 52],,,,,10^-4 mol.l^-1,23 (± 1) %,> 167 µM,> 167 µM,> 167 µM,,
Oc1ccoc1CNc1nc(F)nc2c1ncn2C1CCCO1 (stereo not drawn) [Compound 53],,,,,10^-4 mol.l^-1,45 (± 13) %,> 167 µM,> 167 µM,> 167 µM,,
"c1coc(CNc2ncnc3c2ncn3C2CCCCO2)c1 (stereo not drawn) [KTHP, 6-furfurylamino-9-tetrahydropyranylpurine, reference compound]",,,,,10^-4 mol.l^-1,100 (± 8.6) %,,,,,
"c1coc(CNc2ncnc3[nH]cnc23)c1 [Kinetin, reference compound]",133 µM,148 µM,> 167 µM,164 µM,,,,,,,
"CC(C)=CCNc1ncnc2nc[nH]c12 [isopentenyladenine, reference compound]",,,,,,,124 µM,134 µM,> 167 µM,147 µM,
"Oc1ccccc1CNc1ncnc2nc[nH]c12 [ortho-topolin, reference compound]",,,,,,,94.1 µM,108 µM,87.5 µM,94.3 µM,
